These results are taken from patent publication US20100272680A1, “Piperidinyl Cyclic Amido Antiviral Agents” (priority 2009, published 2010).

One assay relates to HCV Genotype 1B Replicon. Description: Replicon assay, genotype 1b subgenomic replicon (ET cell line), luciferase readout. Conditions: Hepatitis C virus, 48 h, Table 3; luciferase activity after 48 hours. Type of assay: cell-based. In a few lines: (§1)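 Stable luciferase replicon cells (1b: ET line with adaptive mutations; 1a: Apath-derived) plated at 0.5×10^4 cells/well with compound (final 0.03–50 μM, 0.5–1% DMSO). Luciferase read after 48 h; EC50 from 10-point, 3–4-fold dilution curves by four-parameter logistic fit, normalized to no-compound and no-cell controls.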
A general note: In antiviral work, replicon cells carry a viral genome segment that copies itself.

Another assay deals with HCV Genotype 1A Replicon. The assay can be described thus: Replicon assay, genotype 1a subgenomic replicon, luciferase readout. In kind it is cell-based. Conditions: Hepatitis C virus, 48 h, Table 3; luciferase activity after 48 hours. The method in brief: as §1

Consider `O=C(c1nc2c(C(F)(F)F)cc(C3CC3)cn2c1Cl)N1CCC(N2CCOC2=O)CC1` [Compound 156, 3-(1-{[3-chloro-6-cyclopropyl-8-(trifluoromethyl)imidazo[1,2-a]pyridin-2-yl]carbonyl}-4-piperidinyl)-1,3-oxazolidin-2-one], for which the 50% effective concentration (EC50) in the assay on HCV Genotype 1B Replicon and in the assay on HCV Genotype 1A Replicon was 10 nM in each case.
For `O=C(c1nc2c(C(F)(F)F)cc(C(F)F)cn2c1Cl)N1CCC(N2CCOC2=O)CC1` [Compound 157, 3-(1-{[3-chloro-6-(difluoromethyl)-8-(trifluoromethyl)imidazo[1,2-a]pyridin-2-yl]carbonyl}-4-piperidinyl)-1,3-oxazolidin-2-one], the concentration giving a half-maximal response (EC50) amounted to 150 nM in the assay with HCV Genotype 1B Replicon and 20 nM with HCV Genotype 1A Replicon.
In the same order, the values of `O=C(c1nc2c(C(F)(F)F)cc(-c3ccoc3)cn2c1Br)N1CCC(N2CCOC2=O)CC1` [Compound 158, 3-(1-{[3-bromo-6-(3-furanyl)-8-(trifluoromethyl)imidazo[1,2-a]pyridin-2-yl]carbonyl}-4-piperidinyl)-1,3-oxazolidin-2-one] are 40 nM and 10 nM.
For the compound `O=C(c1nc2c(C(F)(F)F)cc(-c3ccoc3)cn2c1Br)N1CCC(N2C(=O)COC2=O)CC1` [Compound 159, 3-(1-{[3-bromo-6-(3-furanyl)-8-(trifluoromethyl)imidazo[1,2-a]pyridin-2-yl]carbonyl}-4-piperidinyl)-1,3-oxazolidine-2,4-dione], the EC50 in the assay on HCV Genotype 1B Replicon and in the assay with HCV Genotype 1A Replicon was 30 nM in each case.
For the compound `N#Cc1c(C(=O)N2CCC(N3CCOC3=O)CC2)nc2c(C(F)(F)F)cc(-c3ccoc3)cn12` [Compound 160, 6-(3-furanyl)-2-{[4-(2-oxo-1,3-oxazolidin-3-yl)-1-piperidinyl]carbonyl}-8-(trifluoromethyl)imidazo[1,2-a]pyridine-3-carbonitrile], the EC50 in the assay on HCV Genotype 1B Replicon and with HCV Genotype 1A Replicon was 10 nM in each case.
For `N#Cc1c(C(=O)N2CCC(N3C(=O)COC3=O)CC2)nc2c(C(F)(F)F)cc(-c3ccoc3)cn12` [Compound 161, 2-{[4-(2,4-dioxo-1,3-oxazolidin-3-yl)-1-piperidinyl]carbonyl}-6-(3-furanyl)-8-(trifluoromethyl)imidazo[1,2-a]pyridine-3-carbonitrile], the EC50 in the assay on HCV Genotype 1B Replicon and with HCV Genotype 1A Replicon was 30 nM each time.
With `N#Cc1c(C(=O)N2CCC(N3CCOC3=O)CC2)nc2c(C(F)(F)F)cc(C3CC3)cn12` [Compound 162, 6-cyclopropyl-2-{[4-(2-oxo-1,3-oxazolidin-3-yl)-1-piperidinyl]carbonyl}-8-(trifluoromethyl)imidazo[1,2-a]pyridine-3-carbonitrile], the EC50 in the assay with HCV Genotype 1B Replicon and in the assay on HCV Genotype 1A Replicon was 10 nM each time.
As for `O=C(c1nc2c(C(F)(F)F)cc(C3CC3)cn2c1Cl)N1CCC(N2CC(O)CC2=O)CC1` (centres unmarked) [Compound 163, 1-(1-{[3-chloro-6-cyclopropyl-8-(trifluoromethyl)imidazo[1,2-a]pyridin-2-yl]carbonyl}-4-piperidinyl)-4-hydroxy-2-pyrrolidinone], the EC50 in the assay with HCV Genotype 1B Replicon came out at 80 nM; with HCV Genotype 1A Replicon, 380 nM.
`Cc1c(C(=O)N2CCC(N3CCOC3=O)CC2)nc2c(C(F)(F)F)cc(-c3ccoc3)cn12` [Compound 164, 3-(1-{[6-(3-furanyl)-3-methyl-8-(trifluoromethyl)imidazo[1,2-a]pyridin-2-yl]carbonyl}-4-piperidinyl)-1,3-oxazolidin-2-one]: the EC50 in the assay with HCV Genotype 1B Replicon came to 100 nM; in the assay with HCV Genotype 1A Replicon, 30 nM.
As to `CC(C)c1c(C(=O)N2CCC(N3CCOC3=O)CC2)nc2c(C(F)(F)F)cc(-c3ccoc3)cn12` [Compound 165, 3-(1-{[6-(3-furanyl)-3-(1-methylethyl)-8-(trifluoromethyl)imidazo[1,2-a]pyridin-2-yl]carbonyl}-4-piperidinyl)-1,3-oxazolidin-2-one], the EC50 in the assay with HCV Genotype 1B Replicon and in the assay with HCV Genotype 1A Replicon was no less than 5010 nM throughout.
For the compound `O=C(c1nc2c(C(F)(F)F)cc(-c3ccoc3)cn2c1CO)N1CCC(N2CCOC2=O)CC1` [Compound 166, 3-(1-{[6-(3-furanyl)-3-(hydroxymethyl)-8-(trifluoromethyl)imidazo[1,2-a]pyridin-2-yl]carbonyl}-4-piperidinyl)-1,3-oxazolidin-2-one], the results for the concentration for a half-maximal effect (EC50) in the assay on HCV Genotype 1B Replicon and in the assay on HCV Genotype 1A Replicon were 2000 nM and 920 nM, respectively.
For the compound `O=C(c1nc2c(C(F)(F)F)cc(-c3cn[nH]c3)cn2c1Cl)N1CCC(N2C(=O)CCC2=O)CC1` [Compound 167, 1-(1-{[3-chloro-6-(1H-pyrazol-4-yl)-8-(trifluoromethyl)imidazo[1,2-a]pyridin-2-yl]carbonyl}-4-piperidinyl)-2,5-pyrrolidinedione], the 50% effective concentration (EC50) in the assay with HCV Genotype 1B Replicon worked out at 520 nM; in the assay with HCV Genotype 1A Replicon, 630 nM.
On to `O=C(c1nc2c(C(F)(F)F)cc(-c3ccoc3)cn2c1Cl)N1CCC(N2C(=O)CCC2=O)CC1` [Compound 168, 1-(1-{[3-chloro-6-(3-furanyl)-8-(trifluoromethyl)imidazo[1,2-a]pyridin-2-yl]carbonyl}-4-piperidinyl)-2,5-pyrrolidinedione], for which the values for the 50% effective concentration (EC50) in the assay with HCV Genotype 1B Replicon and with HCV Genotype 1A Replicon were 70 nM and 100 nM, respectively.
As to `O=C(c1nc2c(C(F)(F)F)cc(-c3ccoc3)cn2c1Cl)N1CCC(N2CCNC2=O)CC1` [Compound 169, 1-(1-{[3-chloro-6-(3-furanyl)-8-(trifluoromethyl)imidazo[1,2-a]pyridin-2-yl]carbonyl}-4-piperidinyl)-2-imidazolidinone], the EC50 in the assay on HCV Genotype 1B Replicon is 160 nM; in the assay on HCV Genotype 1A Replicon, 1880 nM.
As to `O=C(c1nc2c(C(F)(F)F)cc(-c3cn[nH]c3)cn2c1Cl)N1CCC(N2CCNC2=O)CC1` [Compound 170, 1-(1-{[3-chloro-6-(1H-pyrazol-4-yl)-8-(trifluoromethyl)imidazo[1,2-a]pyridin-2-yl]carbonyl}-4-piperidinyl)-2-imidazolidinone], the EC50 came out at 1320 nM in the assay with HCV Genotype 1B Replicon and 8810 nM with HCV Genotype 1A Replicon.
In the case of `O=C1CN(C2CCN(C(=O)c3nc4c(C(F)(F)F)cc(-c5ccoc5)cn4c3Cl)CC2)C(=O)N1` [Compound 171, 1-(1-{[3-chloro-6-(3-furanyl)-8-(trifluoromethyl)imidazo[1,2-a]pyridin-2-yl]carbonyl}-4-piperidinyl)-2,4-imidazolidinedione], the results for the concentration giving a half-maximal response (EC50) in the assay on HCV Genotype 1B Replicon and with HCV Genotype 1A Replicon were 580 nM and 810 nM, respectively.
`O=C1CN(C2CCN(C(=O)c3nc4c(C(F)(F)F)cc(-c5cn[nH]c5)cn4c3Cl)CC2)C(=O)N1` [Compound 172, 1-(1-{[3-chloro-6-(1H-pyrazol-4-yl)-8-(trifluoromethyl)imidazo[1,2-a]pyridin-2-yl]carbonyl}-4-piperidinyl)-2,4-imidazolidinedione]: the EC50 came out at 3760 nM in the assay with HCV Genotype 1B Replicon and 3210 nM with HCV Genotype 1A Replicon.
In the same order, the values of `CN1CCN(C2CCN(C(=O)c3nc4c(C(F)(F)F)cc(-c5ccoc5)cn4c3Cl)CC2)C1=O` [Compound 173, 1-(1-{[3-chloro-6-(3-furanyl)-8-(trifluoromethyl)imidazo[1,2-a]pyridin-2-yl]carbonyl}-4-piperidinyl)-3-methyl-2-imidazolidinone] are 480 nM and 750 nM.
`O=C(c1nc2c(C(F)(F)F)cc(-c3cn[nH]c3)cn2c1Cl)N1CCC(N2C(=O)CNC2=O)CC1` [Compound 174, 3-(1-{[3-chloro-6-(1H-pyrazol-4-yl)-8-(trifluoromethyl)imidazo[1,2-a]pyridin-2-yl]carbonyl}-4-piperidinyl)-2,4-imidazolidinedione]: the figures for the EC50 with HCV Genotype 1B Replicon and with HCV Genotype 1A Replicon were 2290 nM and 25100 nM, respectively.
Consider `O=C(c1nc2c(C(F)(F)F)cc(-c3ccoc3)cn2c1Cl)N1CCC(N2C(=O)CNC2=O)CC1` [Compound 175, 3-(1-{[3-chloro-6-(3-furanyl)-8-(trifluoromethyl)imidazo[1,2-a]pyridin-2-yl]carbonyl}-4-piperidinyl)-2,4-imidazolidinedione], for which the concentration giving a half-maximal response (EC50) in the assay with HCV Genotype 1B Replicon stood at 140 nM; in the assay with HCV Genotype 1A Replicon, 2570 nM.
For `CC1(C)COC(=O)N1C1CCN(C(=O)c2nc3c(C(F)(F)F)cc(-c4ccoc4)cn3c2Cl)CC1` [Compound 176, 3-(1-{[3-chloro-6-(3-furanyl)-8-(trifluoromethyl)imidazo[1,2-a]pyridin-2-yl]carbonyl}-4-piperidinyl)-4,4-dimethyl-1,3-oxazolidin-2-one] the same measures were no less than 50100 nM and no less than 50100 nM.
Take `CC1(C)COC(=O)N1C1CCN(C(=O)c2nc3c(C(F)(F)F)cc(-c4cn[nH]c4)cn3c2Cl)CC1` [Compound 177, 3-(1-{[3-chloro-6-(1H-pyrazol-4-yl)-8-(trifluoromethyl)imidazo[1,2-a]pyridin-2-yl]carbonyl}-4-piperidinyl)-4,4-dimethyl-1,3-oxazolidin-2-one]: the EC50 with HCV Genotype 1B Replicon and in the assay on HCV Genotype 1A Replicon was no less than 50100 nM in each case.
On to `O=C(c1nc2c(C(F)(F)F)cc(-c3ccoc3)cn2c1Cl)N1CCC(N2C(=O)COC2=O)CC1` [Compound 178, 3-(1-{[3-chloro-6-(3-furanyl)-8-(trifluoromethyl)imidazo[1,2-a]pyridin-2-yl]carbonyl}-4-piperidinyl)-1,3-oxazolidine-2,4-dione], for which the values for the EC50 in the assay with HCV Genotype 1B Replicon and in the assay on HCV Genotype 1A Replicon were 30 nM and 20 nM, respectively.
Turning to `O=C(c1nc2c(C(F)(F)F)cc(-c3cn[nH]c3)cn2c1Cl)N1CCC(N2C(=O)COC2=O)CC1` [Compound 179, 3-(1-{[3-chloro-6-(1H-pyrazol-4-yl)-8-(trifluoromethyl)imidazo[1,2-a]pyridin-2-yl]carbonyl}-4-piperidinyl)-1,3-oxazolidine-2,4-dione], the EC50 in the assay on HCV Genotype 1B Replicon is 360 nM; in the assay with HCV Genotype 1A Replicon, 60 nM.
Take `C[C@H]1COC(=O)N1C1CCN(C(=O)c2nc3c(C(F)(F)F)cc(-c4ccoc4)cn3c2Cl)CC1` [Compound 180, (4S)-3-(1-{[3-chloro-6-(3-furanyl)-8-(trifluoromethyl)imidazo[1,2-a]pyridin-2-yl]carbonyl}-4-piperidinyl)-4-methyl-1,3-oxazolidin-2-one]: the figures for the EC50 with HCV Genotype 1B Replicon and in the assay with HCV Genotype 1A Replicon were 2850 nM and 1620 nM, respectively.

As a reminder, the EC50 is the concentration that produces a half-maximal response. Read a low EC50 as higher potency in that assay.
